Measured values reported in patent publication US20260199346A1, “METHODS OF TREATING SOLID TUMORS DRIVEN BY HER2 ALTERATIONS WITH TUCATINIB IN COMBINATION WITH AN ANTI-HER2 ANTIBODY” (Seagen Inc., priority 2020, published 2026).

How the values were obtained:
HER2 [1] = target: T1, HER2 (Homo sapiens, UniProt P04626); experiment: plasma membrane-bound HER2 levels by quantitative FACS (qFACS); assay type: cell-based; design: four different HER2-amplified breast cancer cell lines (BT-474, SK-BR-3, HCC-1419, and UACC-893); endogenous in cells; host or cells: BT-474, SK-BR-3, HCC-1419, UACC-893; details: 30 nM or 100 nM tucatinib, 24 hours and 48 hours; BT-474, SK-BR-3, HCC-1419 and UACC-893 HER2-amplified breast cancer cell lines
T1 sequence (P04626 23-1255): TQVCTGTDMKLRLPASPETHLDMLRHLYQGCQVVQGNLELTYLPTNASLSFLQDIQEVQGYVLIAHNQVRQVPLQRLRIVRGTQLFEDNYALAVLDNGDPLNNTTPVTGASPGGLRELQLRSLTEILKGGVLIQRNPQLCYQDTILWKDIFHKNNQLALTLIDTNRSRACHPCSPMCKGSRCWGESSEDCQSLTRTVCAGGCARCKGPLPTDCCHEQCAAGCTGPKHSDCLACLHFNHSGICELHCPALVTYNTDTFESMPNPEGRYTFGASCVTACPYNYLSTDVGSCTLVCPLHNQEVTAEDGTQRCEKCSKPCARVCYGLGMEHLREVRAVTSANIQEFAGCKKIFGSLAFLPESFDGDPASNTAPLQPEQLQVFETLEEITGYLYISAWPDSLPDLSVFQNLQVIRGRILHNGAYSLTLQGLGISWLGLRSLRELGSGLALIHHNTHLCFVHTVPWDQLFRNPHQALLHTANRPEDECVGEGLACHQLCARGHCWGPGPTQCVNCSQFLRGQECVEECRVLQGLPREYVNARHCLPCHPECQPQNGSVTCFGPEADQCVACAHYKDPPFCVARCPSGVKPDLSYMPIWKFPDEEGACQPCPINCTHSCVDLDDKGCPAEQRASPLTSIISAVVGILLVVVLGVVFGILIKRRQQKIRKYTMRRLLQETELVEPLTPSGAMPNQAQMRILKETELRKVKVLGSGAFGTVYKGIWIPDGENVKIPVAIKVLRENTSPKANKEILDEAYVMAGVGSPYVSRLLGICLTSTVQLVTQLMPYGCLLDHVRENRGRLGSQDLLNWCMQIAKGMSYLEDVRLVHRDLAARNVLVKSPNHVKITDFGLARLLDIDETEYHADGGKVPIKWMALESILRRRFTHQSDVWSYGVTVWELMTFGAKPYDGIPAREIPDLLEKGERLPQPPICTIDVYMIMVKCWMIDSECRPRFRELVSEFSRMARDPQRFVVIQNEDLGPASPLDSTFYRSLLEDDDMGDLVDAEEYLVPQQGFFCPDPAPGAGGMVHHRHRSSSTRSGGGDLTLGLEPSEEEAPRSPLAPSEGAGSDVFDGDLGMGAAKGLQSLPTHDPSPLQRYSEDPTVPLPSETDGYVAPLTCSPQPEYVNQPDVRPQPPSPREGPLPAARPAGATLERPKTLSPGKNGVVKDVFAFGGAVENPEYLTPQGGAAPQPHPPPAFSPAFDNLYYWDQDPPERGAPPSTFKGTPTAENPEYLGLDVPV
Method: (§1) Protein lysates were generated from cells harvested at each time point, HER2 total protein levels were determined by western blot analysis using a WES system, and normalized against GAPDH levels as a loading control. As shown in FIG. 1A-1D, in all four cell lines tested, HER2 total protein levels increased after treatment with tucatinib relative to untreated cell lines. Total HER2 protein levels are shown as a percentage of the total HER2 protein levels of untreated cells. Plasma membrane-bound levels of HER2 were determined by quantitative FACS (qFACS) analysis after exclusion of dead cells. As shown in FIG. 1E-1H, treatment with either 30 nM or 100 nM increased plasma membrane-bound HER2 protein levels in all four cell lines relative to untreated cell lines. Plasma membrane-bound HER2 protein levels are shown as a percentage of the plasma membrane-bound HER2 protein levels of untreated cells.

HER2 [2] = target: T1, HER2; experiment: inhibition of HER2 in vitro; assay type: biochemical
Description: (§2) Tucatinib inhibits the HER2-driven mitogen-activated protein and PI3 kinase signaling pathways, resulting in inhibition of tumor cell proliferation, survival, and metastasis.

HER2 [3] = target: T1, HER2; experiment: HER2 total protein levels by western blot analysis (WES system), normalized against GAPDH; assay type: cell-based; design: four different HER2-amplified breast cancer cell lines (BT-474, SK-BR-3, HCC-1419, and UACC-893); endogenous in cells; host or cells: BT-474, SK-BR-3, HCC-1419, UACC-893; details: 30 nM or 100 nM tucatinib, 24 hours and 48 hours; BT-474, SK-BR-3, HCC-1419 and UACC-893 HER2-amplified breast cancer cell lines
Method: as §1

HER2 [4] = target: T1, HER2; experiment: HER2 internalization assay using Trastuzumab-AF488; assay type: cell-based; details: tucatinib 100 nM, SK-BR-3 cells, imaged at time points spanning 72 hours
Method: (§3) To probe the dynamics of HER2 at the cell surface upon binding to antibody therapeutics in the presence or absence of tucatinib (100 nM), SK-BR-3 cells were incubated with fluorescently-labeled trastuzumab (Trastuzumab-AF488) to mark HER2 at the cell surface. Excess antibody was washed out. Cells were imaged at time points spanning 72 hours to observe internalization of surface-bound antibody. […] Concurrent experiments were conducted with trastuzumab labeled with QF (Trastuzumab-QF) […], a quenched fluorophore which fluoresces upon lysosomal processing and can serve as a proxy for antibody catabolism.

HER2 [5] = target: T1, HER2; experiment: cellular signaling assays, selectivity for HER2 compared to EGFR; assay type: cell-based; design: four different HER2-amplified breast cancer cell lines (BT-474, SK-BR-3, HCC-1419, and UACC-893); endogenous in cells; host or cells: BT-474, SK-BR-3, HCC-1419, UACC-893
Description: as §2

HER2 [6] = target: T1, HER2; experiment: HER2 internalization assay using Trastuzumab-QF (lysosomal processing); assay type: cell-based; details: tucatinib 100 nM; SK-BR-3 cells; Trastuzumab-QF in the presence of chloroquine
Method: as §3

- plasma membrane-bound HER2 protein levels relative to untreated cell lines (HER2 [1]): increased
- inhibition of HER2 in vitro (HER2 [2]): potent inhibitor of HER2 in vitro
- HER2 total protein levels relative to untreated cell lines (HER2 [3]): increased
- dwell time of HER2 at the cell surface (HER2 [4]): increased
- selectivity for HER2 compared to the closely related kinase EGFR (HER2 [5]): > 1000 fold
Compound: Cc1cc(Nc2ncnc3ccc(NC4=NC(C)(C)CO4)cc23)ccc1Oc1ccn2ncnc2c1 [tucatinib, N^4-(4-([1,2,4]triazolo[1,5-a]pyridin-7-yloxy)-3-methylphenyl)-N^6-(4,4-dimethyl-4,5-dihydrooxazol-2-yl) quinazoline-4,6-diamine]
- internalization and lysosomal processing of HER2-bound antibody (HER2 [6]): rapid internalization and lysosomal processing
